In patent US6150414A, “Compositions and methods for treating viral infections” (priority 1992, dated 2000):
Where “and” joins values, the source holds several entries; their conditions need not be identical. Equal entries are not always repeated.

Key:
[1] = system: Friend Leukemia Virus; assay: Inhibition of Friend Leukemia Virus-induced splenomegaly in mice, compounds intraperitoneally 24 hours after virus (Example 1(a)); type: in vivo, BALB/c mice; settings: dose 150 mg (so in the source); Table III second set
Method in brief: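 BALB/c mice inoculated i.v. with 10^6 FFU Friend virus (spleen homogenate); compounds given i.p. 24 h later at 100 μg once, or 50, 100, 200 μg or 2×100 μg (second dose 24–48 h after first), two mice per group. Spleens weighed at day 10; percent inhibition from average spleen weights relative to negative and positive controls.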

[2] = target: T1, Radiation Leukemia Virus reverse transcriptase (Radiation murine leukemia virus, UniProt P11227); assay: Reverse transcriptase assay of Radiation Leukemia Virus from B10.T(6R) cell supernatants (Example 3); type: biochemical; settings: Table V; for CPM: replicate
T1 construct: the reverse transcriptase of Radiation Leukemia Virus; endogenous in cells
Procedure: Supernatants (10 ml/tube) from B10.T(6R) cells (Meruelo et al. J. Exp. Med. 147: 470-487, 1978) chronically infected with Radiation Leukemia Virus (RadLV) were obtained by centrifugation of cells in culture at 4° C., 3500 rpm for 15 minutes. The top 2/3 of the supernatant were removed and aliquots were incubated for 30 minutes on ice with the indicated amounts of hypericin or protohypericin. […] Thereafter, supernatants were centrifuged at 100,000×g using a TI70 rotor (Beckman Instruments) for 1 hour at 4° C. The pellet was […] and analyzed for reverse transcriptase activity as follows.
The reverse transcriptase assay was performed in a volume of 100 microliters containing the following components:
The reverse transcriptase assay provides a measure of the antiviral activity of the compounds tested by reference to the observed decrease in activity of this enzyme.
In Table V, "CPM" is "counts per minute", "Average" is the numerical average of CPM values within each group of animals.

[3] = target: T1, Radiation Leukemia Virus reverse transcriptase; assay: Radiation Leukemia Virus reverse transcriptase assay, supernatants from infected AQR cells (Examples 4 and 9); type: biochemical; settings: Table VI; for CPM: replicate, listed as Hy
Method in brief: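 Supernatants from AQR cells chronically infected with RadLV were incubated 30 min on ice with the test compound (hypericin, protohypericin or HHA). Virus was pelleted at 100,000×g for 1 h at 4 °C, and the pellet was assayed for reverse transcriptase activity.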

[4] = system: retroviruses; assay: Comparison over two in vitro and one in vivo biological assays (Example 10); settings: Example 10
Procedure: In order to investigate the structural features of hypericin which are essential for antiretroviral activity, numerous analogs and precursors of hypericin were examined for activity in two in vitro and one in vivo biological assay.
(1) Direct inactivation of retroviruses in vitro, performed as in Example 3 above;
(3) In vivo inhibition of Friend Leukemia Virus Splenomegaly performed as described in Example 1 above except that the compounds were administered intravenously 1-2 hours post infection.

How did the “Average Spleen Weight” value [1] turn out when `Cc1cc(O)c2c(=O)c3c(O)cc(O)c4c5c(O)cc(O)c6c(=O)c7c(O)cc(C)c8c1c2c(c34)c(c78)c65` [hypericin, Hypericin] was run?
Its value is 0.7707.

What about the “Average CPM” value ([2]; 0.05 micrograms) of the same molecule?
Its value is 3,067 CPM.

What about the Average percent inhibition ([2]; 0.05 micrograms) of the same molecule?
Its Average percent inhibition is 98.5%.

What about the CPM ([2]; 0.05 micrograms) of the same molecule?
The CPM was 2,882 CPM and 3,252 CPM.

And the “Average CPM” value ([2]; 0.1 micrograms)?
Its value is 2,333 CPM.

What about the Average percent inhibition ([2]; 0.1 micrograms) of the same molecule?
The Average percent inhibition was 98.9%.

What about the CPM ([2]; 0.1 micrograms) of the same molecule?
The CPM was 1,668 CPM and 2,998 CPM.

What about the “Average CPM” value ([2]; 0.5 micrograms) of the same molecule?
Its value is 3,428.5 CPM.

What about the Average percent inhibition ([2]; 0.5 micrograms) of the same molecule?
The Average percent inhibition was 98.4%.

And the CPM ([2]; 0.5 micrograms)?
Its CPM is 3,190 CPM and 3,667 CPM.

What about the “Average CPM” value ([2]; 1 microgram) of the same molecule?
Its value is 4,097 CPM.

What about the Average percent inhibition ([2]; 1 microgram) of the same molecule?
Its Average percent inhibition is 98.0%.

What about the CPM ([2]; 1 microgram) of the same molecule?
The CPM was 4,504 CPM and 3,690 CPM.

And the “Average CPM” value ([2]; 5 micrograms)?
The value was 11,778 CPM.

And the Average percent inhibition ([2]; 5 micrograms)?
Its Average percent inhibition is 94.4%.

And the CPM ([2]; 5 micrograms)?
The CPM was 12,224 CPM and 11,332 CPM.

And the “Average CPM” value ([2]; 10 micrograms)?
The value was 9,007 CPM.

What about the Average percent inhibition ([2]; 10 micrograms) of the same molecule?
Its Average percent inhibition is 95.7%.

What about the CPM ([2]; 10 micrograms) of the same molecule?
The CPM was 8,912 CPM and 9,102 CPM.

And the “Average CPM” value ([2]; 50 micrograms)?
The value was 4,575 CPM.

And the Average percent inhibition ([2]; 50 micrograms)?
Its Average percent inhibition is 97.8%.

What about the CPM ([2]; 50 micrograms) of the same molecule?
Its CPM is 5,434 CPM and 3,716 CPM.

And the “Average CPM” value ([2]; 100 micrograms)?
Its value is 1,830 CPM.

And the Average percent inhibition ([2]; 100 micrograms)?
Its Average percent inhibition is 99.0%.

What about the CPM ([2]; 100 micrograms) of the same molecule?
Its CPM is 1,502 CPM and 2,158 CPM.

What about the “Average CPM” value ([3]; 0.4 micrograms) of the same molecule?
Its value is 2,489 CPM.

And the “Average percent inhibition” value ([3]; 0.4 micrograms)?
The value was 99.4%.

What about the CPM ([3]; 0.4 micrograms) of the same molecule?
The CPM was 1,700 CPM and 3,278 CPM.

What about the “Average CPM” value ([3]; 2 micrograms) of the same molecule?
The value was 9,986 CPM.

What about the “Average percent inhibition” value ([3]; 2 micrograms) of the same molecule?
The value was 97.8%.

What about the CPM ([3]; 2 micrograms) of the same molecule?
The CPM was 14,474 CPM and 5,498 CPM.

And the “Average CPM” value ([3]; 10 micrograms)?
The value was 11,588 CPM.

And the “Average percent inhibition” value ([3]; 10 micrograms)?
The value was 97.4%.

And the CPM ([3]; 10 micrograms)?
Its CPM is 9,288 CPM and 13,888 CPM.

And the “Average CPM” value ([3]; 50 micrograms)?
Its value is 31,818 CPM.

What about the “Average percent inhibition” value ([3]; 50 micrograms) of the same molecule?
Its value is 92.9%.

And the CPM ([3]; 50 micrograms)?
The CPM was 33,948 CPM and 29,688 CPM.

And the “Average CPM” value ([3]; 100 micrograms)?
Its value is 31,347 CPM.

And the “Average percent inhibition” value ([3]; 100 micrograms)?
The value was 93.0%.

And the CPM ([3]; 100 micrograms)?
Its CPM is 28,946 CPM and 33,748 CPM.

What about the “activity across assays” value [4] of the same molecule?
The value was “high degree of activity in a more than one assay”.
